Test results taken from US20040005537A1, “Method of identifying toxic agents using differential gene expression” (priority 2000, published 2004).

Columns and labels:
rat heart tissue = assay: GENECALLING differential gene expression analysis after dosing of serotonin modulating agents; type: in vivo, Sprague Dawley rats
Summary of the method: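 GENECALLING profiling of cDNA from total RNA, keeping gene fragments modulated beyond ±1.5-fold. Tissue collected 24 h after final dosing of serotonin modulating agents; control rats received sterile water or canola oil.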

[1] = grouping used to generate the distinguishing gene profiles; cited from earlier work

CNCCC(Oc1ccc(C(F)(F)F)cc1)c1ccccc1 (stereo not shown) [fluoxetine]
Effects on Transcription Level: Novel gene fragment, 535 bp, 90% SI to mouse slow/cardiac troponin C [M29793] (rat heart tissue; CARDIOTOX 71): −2.0 fold
Effects on Transcription Level: Novel gene fragment, 445 bp, 85% SI to human skeletal muscle alpha 2 actinin [M86406] (rat heart tissue; CARDIOTOX 72): −1.6 fold
Effects on Transcription Level: Novel gene fragment, 246 bp, 89% SI to mouse ponsin-1 [AF078667] (rat heart tissue; CARDIOTOX 73): −2.5 fold
Effects on Transcription Level: Novel gene fragment, 126 bp, 77% SI to human DNA sequence from cosmid V311G7, between markers DXS366 and DXS87 on chromosome X [Z69304] (rat heart tissue; CARDIOTOX 74): +2.0 fold
Effects on Transcription Level: Novel gene fragment, 370 bp (rat heart tissue; CARDIOTOX 75): −1.9 fold
Effects on Transcription Level: Novel gene fragment, 337 bp, 78% SI to novel human protein AHNAK [M80899] (rat heart tissue; CARDIOTOX 76): −2.5 fold
Effects on Transcription Level: Novel gene fragment, 100 bp, 93% SI to human KIAA0750 protein [ABO18293] (rat heart tissue; CARDIOTOX 77): −7.6 fold
Effects on Transcription Level: Novel gene fragment, 44 bp (rat heart tissue; CARDIOTOX 78): −5.6 fold
Effects on Transcription Level: Novel gene fragment, 698 bp, 93% SI to mouse plenty-of-prolines-101 [AF062655] (rat heart tissue; CARDIOTOX 79): −2.3 fold
Effects on Transcription Level: Novel gene fragment, 660 bp, 84% SI to mouse membrane protein TMS-2 [AF181685] (rat heart tissue; CARDIOTOX 80): −4.1 fold
Effects on Transcription Level: Novel gene fragment, 115 bp (rat heart tissue; CARDIOTOX 81): −8.1 fold
Effects on Transcription Level: Novel gene fragment, 294 bp, 95% SI to mouse Ndr1 related protein Ndr2 [AB033921] (rat heart tissue; CARDIOTOX 82): −2.5 fold
Effects on Transcription Level: Novel gene fragment, 198 bp (rat heart tissue; CARDIOTOX 83): +2.5 fold
Effects on Transcription Level: Novel gene fragment, 730 bp, 86% SI to mouse E800 [Y10968] (rat heart tissue; CARDIOTOX 84): −1.8 fold
Effects on Transcription Level: Novel gene fragment, 294 bp, 98% SI to cysteine conjugate beta-lyase [S61960] (rat heart tissue; CARDIOTOX 85): −1.8 fold
Effects on Transcription Level: Aconitase (rat heart tissue; CARDIOTOX 86, GenBank A1243266): −3.9 fold
Effects on Transcription Level: Ribosomal protein L7 (rat heart tissue; CARDIOTOX 87, GenBank M17422): +2.7 fold
Effects on Transcription Level: Ribosomal protein L9 (rat heart tissue; CARDIOTOX 88, GenBank X51706): +6.0 fold
Effects on Transcription Level: Ribosomal protein L12 (rat heart tissue; CARDIOTOX 89, GenBank X53504): −2.2 fold
Effects on Transcription Level: 18S, 5.8S, and 28S ribosomal RNA's (rat heart tissue; CARDIOTOX 90, GenBank V01270): +7 fold
Effects on Transcription Level: Pyruvate dehydrogenase kinase 2 (PDK2) (rat heart tissue; CARDIOTOX 91, GenBank U10357): −11.3 fold
Effects on Transcription Level: D-Binding Protein (DBP) (rat heart tissue; CARDIOTOX 92, GenBank J03179): −1.5 fold
Effects on Transcription Level: Lipoprotein lipase (rat heart tissue; CARDIOTOX 93, GenBank L03294): −3.7 fold
Effects on Transcription Level: Non-neuronal enolase (rat heart tissue; CARDIOTOX 94, GenBank X02610): +3.1 fold
Effects on Transcription Level: Glycogen phosphorylase (muscle isozyme) (rat heart tissue; CARDIOTOX 95, GenBank L10669): −3.0 fold
Effects on Transcription Level: Cytochrome c oxidase subunit IV (rat heart tissue; CARDIOTOX 96, GenBank X14209): +8.0 fold
Effects on Transcription Level: Alpha-globin (rat heart tissue; CARDIOTOX 97, GenBank M17083): +2.9 fold
Effects on Transcription Level: Beta-globin (rat heart tissue; CARDIOTOX 98, GenBank X06701): +4.0 fold
Effects on Transcription Level: Myoglobin (rat heart tissue; CARDIOTOX 99, GenBank AF197916): +2.2 fold
Effects on Transcription Level: Titin (rat heart tissue; CARDIOTOX 100, GenBank L38717): +1.6 fold
Effects on Transcription Level: Skeletal muscle actin (rat heart tissue; CARDIOTOX 101, GenBank V01218): −13.1 fold
Effects on Transcription Level: Myosin light chain 2 (MLC2) (rat heart tissue; CARDIOTOX 102, GenBank M11851): +3.6 fold
Effects on Transcription Level: Alpha cardiac myosin heavy chain (rat heart tissue; CARDIOTOX 103, GenBank X15938): −4.8 fold
Effects on Transcription Level: Troponin I (rat heart tissue; CARDIOTOX 104, GenBank U77354): +1.6 fold
Effects on Transcription Level: Cardiac calsequestrin (rat heart tissue; CARDIOTOX 105, GenBank AF001334): −2.4 fold
Effects on Transcription Level: Sulfated glycoprotein 2 (rat heart tissue; CARDIOTOX 106, GenBank M16975): −2.2 fold
Effects on Transcription Level: Aquaporin 7 (rat heart tissue; CARDIOTOX 107, GenBank AB000507): +1.8 fold
Effects on Transcription Level: Carnitine/acylcarnitine carrier protein (rat heart tissue; CARDIOTOX 108, GenBank X97831): −2.6 fold
Effects on Transcription Level: Glu-Pro Dipeptide Repeat (rat heart tissue; CARDIOTOX 109, GenBank U40628): −3.1 fold
Effects on Transcription Level: Cystatin beta (rat heart tissue; CARDIOTOX 110, GenBank X54737): +2.5 fold
Effects on Transcription Level: Novel gene fragment, 593 bp, 90% SI to human calcineurin B-like protein [Z08983] (rat heart tissue; CARDIOTOX 111): +2.1 fold
Effects on Transcription Level: Novel gene fragment, 179 bp, 88% SI to human titin [X90568] (rat heart tissue; CARDIOTOX 112): −1.8 fold
Effects on Transcription Level: Novel gene fragment, 700 bp, 91% SI to mouse periplakin (PPL) [AF116523] (rat heart tissue; CARDIOTOX 113): +2.1 fold
Effects on Transcription Level: Long chain acyl-CoA dehydrogenase (LCAD) (rat heart tissue; CARDIOTOX 114, GenBank J05029): +1.6 fold
Effects on Transcription Level: Sulfated glycoprotein 1 (SGP-1) (rat heart tissue; CARDIOTOX 115, GenBank M19936): −2.1 fold
Effects on Transcription Level: Catalase (rat heart tissue; CARDIOTOX 116, GenBank M11670): +1.9 fold
Effects on Transcription Level: Alpha-fodrin (A2A) (Nonerythroid spectrin alpha subunit) (rat heart tissue; CARDIOTOX 117, GenBank AF084186): −1.6 fold
Effects on Transcription Level: Cardiac specific sodium channel alpha-subunit (rat heart tissue; CARDIOTOX 118, GenBank M27902): −2.1 fold
Effects on Transcription Level: Glu-Pro Dipeptide Repeat (rat heart tissue; CARDIOTOX 119, GenBank U40628): +2.7 fold
Effects on Transcription Level: Novel gene fragment, 200 bp, 64% SI to human KIAA0733 protein [AB018316] (rat heart tissue; CARDIOTOX 120): −1.6 fold
Effects on Transcription Level: RNA polymerase II transcription factor SIII (p18 subunit) (rat heart tissue; CARDIOTOX 121, GenBank L42855): +1.8 fold
Effects on Transcription Level: Protein-tyrosine phosphalase (LRP) (rat heart tissue; CARDIOTOX 122, GenBank L01702): +1.5 fold
Effects on Transcription Level: Skeletal muscle selenoprotein W (SelW) (rat heart tissue; CARDIOTOX 123, GenBank U25264): −1.6 fold
Effects on Transcription Level: Sarcoplasmic reticulum 2+-Ca-ATPase (rat heart tissue; CARDIOTOX 124, GenBank X15635): −1.8 fold
Effects on Transcription Level: Ribosomal protein S7 (rat heart tissue; CARDIOTOX 125, GenBank X53377): +1.3 fold
Effects on Transcription Level: Ribophorin I (rat heart tissue; CARDIOTOX 126, GenBank X05300): +1.4 fold
Effects on Transcription Level: Beta cardiac myosin heavy chain (rat heart tissue; CARDIOTOX 127, GenBank X15939): +1.4 fold
Effects on Transcription Level: ADP-ribosylation factor 1 (rat heart tissue; CARDIOTOX 128, GenBank L12380): −1.0 fold
Effects on Transcription Level: Laminin receptor (rat heart tissue; CARDIOTOX 129, GenBank U04942): −1.5 fold
Effects on Transcription Level: Novel gene fragment, 206 bp, 89% SI to human seryl-tRNA synthetase [X91257] (rat heart tissue; CARDIOTOX 130): +1.7 fold
Effects on Transcription Level: Annexin VI (rat heart tissue; CARDIOTOX 131, GenBank X86086): +1.3 fold
Effects on Transcription Level: Novel gene fragment, 325 bp, 90% SI to mouse N-RAP [U76618] (rat heart tissue; CARDIOTOX 132): +1.4 fold
Effects on Transcription Level: Novel gene fragment, 61 bp (CARDIOTOX 134) (rat heart tissue; LD10 dose for three days): −1.2 fold
Effects on Transcription Level: Novel gene fragment, 337 bp (CARDIOTOX 133) (rat heart tissue; LD10 dose for three days): +1.0 fold
Effects on Transcription Level: Novel gene fragment, 378 bp, 88% SI to human coatomer protein (COPA) [U24105] (CARDIOTOX 138) (rat heart tissue; LD10 dose for three days): −1.1 fold
Effects on Transcription Level: Long chain 3-ketoacyl-CoA thiolase (CARDIOTOX 136) (rat heart tissue; LD10 dose for three days, GenBank D16479): −1.1 fold
Effects on Transcription Level: TATA-binding protein interacting protein 120 (TIP120) (CARDIOTOX 135) (rat heart tissue; LD10 dose for three days, GenBank D87671): +1.4 fold
Effects on Transcription Level: Serine protease (CARDIOTOX 139) (rat heart tissue; LD10 dose for three days, GenBank D88250): +1.5 fold
Effects on Transcription Level: Thymosin beta-4 (CARDIOTOX 137) (rat heart tissue; LD10 dose for three days, GenBank M34043): +1.4 fold
classification as cardiotoxic or noncardiotoxic serotonin modulating agent [1]: noncardiotoxic
